The subject of one experiment is Amaranthus viridis. The experiment in a line: Herbicidal activity against Amaranthus viridis assessed as injury at 4 kg/ha applied as spray during postemergence measured after 2 weeks. It counts as functional.
The test system of the next experiment is Chenopodium album. The experiment in a line: Herbicidal activity against Chenopodium album assessed as injury at 4 kg/ha applied as spray during postemergence measured after 2 weeks. The experiment is classed as functional.
Experiment [1] is described as follows: Inhibition of Salmonella enterica subsp. enterica serovar Typhimurium tryptophan synthase alpha subunit. To be noted: read-out: I50.
For experiment [2], the system named is Arabidopsis thaliana. Briefly: Herbicidal activity against Arabidopsis thaliana seedlings assessed as injury at 31 to 1000 uM. The experiment is classed as functional, organism-based.
Experiment [3] concerns Arabidopsis thaliana. Briefly: Herbicidal activity against Arabidopsis thaliana seedlings assessed as injury at 8 to 1000 uM in presence of tryptophan. The experiment is classed as functional, organism-based.
Experiment [4] has as its system Arabidopsis thaliana. The experiment in a line: Herbicidal activity against Arabidopsis thaliana seedlings assessed as chlorosis at 125 to 1000 uM. It counts as functional, organism-based.
Experiment [5] deals with Arabidopsis thaliana. Briefly: Herbicidal activity against Arabidopsis thaliana seedlings assessed as injury at 8 to 16 uM. It counts as functional, organism-based.
The subject of experiment [6] is Arabidopsis thaliana. Briefly: Herbicidal activity against Arabidopsis thaliana seedlings assessed as chlorosis at 8 to 1000 uM. It counts as functional, organism-based.
For experiment [7], the system named is Arabidopsis thaliana. Briefly: Herbicidal activity against Arabidopsis thaliana seedlings assessed as injury at 8 to 1000 uM. It counts as functional, organism-based.
Experiment [8] has as its target T1, Tryptophan synthase alpha /beta chains (Escherichia coli K-12, UniProt P0A877+P0A879).
T1 sequence (P0A879 whole entry): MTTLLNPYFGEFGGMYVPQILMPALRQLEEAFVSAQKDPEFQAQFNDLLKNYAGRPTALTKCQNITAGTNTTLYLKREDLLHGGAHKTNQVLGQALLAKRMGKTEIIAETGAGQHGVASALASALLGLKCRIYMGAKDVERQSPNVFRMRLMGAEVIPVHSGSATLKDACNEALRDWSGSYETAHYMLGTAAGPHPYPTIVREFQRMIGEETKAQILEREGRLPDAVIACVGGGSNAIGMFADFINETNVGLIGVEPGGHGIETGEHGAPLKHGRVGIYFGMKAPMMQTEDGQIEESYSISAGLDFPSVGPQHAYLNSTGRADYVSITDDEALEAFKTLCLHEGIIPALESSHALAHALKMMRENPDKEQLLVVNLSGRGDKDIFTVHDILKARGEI
T1 sequence (P0A877 whole entry): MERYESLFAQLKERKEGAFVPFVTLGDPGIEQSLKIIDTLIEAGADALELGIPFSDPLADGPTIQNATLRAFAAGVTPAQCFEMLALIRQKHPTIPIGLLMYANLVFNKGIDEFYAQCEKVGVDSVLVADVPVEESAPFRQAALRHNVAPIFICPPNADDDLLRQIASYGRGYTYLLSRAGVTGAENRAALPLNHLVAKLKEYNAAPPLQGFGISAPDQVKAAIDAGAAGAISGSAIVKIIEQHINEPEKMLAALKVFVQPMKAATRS
Briefly: Binding affinity to tryptophan synthase alpha2/beta2 complex in Escherichia coli K-12 by equlibrium dialysis method. The experiment is classed as protein-complex assay.

The values below come from ChEMBL document CHEMBL3045570, “Rational herbicide design by inhibition of tryptophan biosynthesis” (Bioorg Med Chem Lett, 1999).

Active and inactive are the calls of the source. The rule behind the calls is not given here. Where only a bound is given, the exact number is not on record here.

As for `O=P(O)(O)CCCCSc1ccccc1O`, the Activity result in the experiment with Amaranthus viridis and in the experiment with Chenopodium album was “<=80%” in each case. Also, the IC50 in experiment [1] worked out at 0.13 µM. In addition, the result in the experiment on Arabidopsis thaliana [2] and in the experiment with Arabidopsis thaliana [4] was Active. In addition, the result in the experiment with Arabidopsis thaliana [3] and in the experiment with Arabidopsis thaliana [5] was inactive.
For the compound `O=P(O)(O)/C=C/CC[S+]([O-])c1ccccc1O` (centres undefined), the result in the experiment on Arabidopsis thaliana [6] and with Arabidopsis thaliana [7] was Active. Moreover, the Activity result with Amaranthus viridis and with Chenopodium album was “<=80%” throughout. Also, the IC50 in experiment [1] was 0.44 µM. Besides, the outcome in the experiment on Arabidopsis thaliana [3] was inactive.
Take `O=P(O)(O)/C=C/CCS(=O)(=O)c1ccccc1O`: the outcome with Amaranthus viridis and in the experiment with Chenopodium album was inactive. Moreover, in [1], the IC50 is 0.36 µM.
Consider `Nc1ccccc1SCCCCP(=O)(O)O`, for which the Activity result in the experiment on Amaranthus viridis and in the experiment with Chenopodium album was “<=65%” each time. Moreover, in experiment [1], the IC50 is 0.4 µM.
Turning to `O=P(O)(O)/C=C/CCSc1ccccc1O`, the outcome with Arabidopsis thaliana [6] and in the experiment on Arabidopsis thaliana [7] was Active. Also, the Activity entry in the experiment with Amaranthus viridis and with Chenopodium album was “<=80%” each time. In addition, the IC50 in experiment [1] was 0.57 µM. Further, in the experiment with Arabidopsis thaliana [3], the result was inactive.
As to `O=P(O)(O)CCCCc1c[nH]c2ccccc12`, the IC50 in [1] is 20 µM.
Broadly, the Ki is a dissociation constant, usually derived from enzyme kinetics or from competition with a known ligand. Read a low Ki as tighter binding. For `O=P(O)(O)OCCCc1c[nH]c2ccccc12`, the IC50 in experiment [1] was 5 µM. Also, the affinity in experiment [8], expressed as Ki, was 15 µM.
Turning to `O=P(O)(O)CCCc1c[nH]c2ccccc12`, in [1], the IC50 was determined as 12.5 µM.
